Reference: ChEMBL document CHEMBL5352398 (Eur J Med Chem, 2022)
The source made the active and inactive calls. The calls are words filed in the database; no cut-off is given here.

How the values were obtained:
[1] = molecular target: T1, Solute carrier family 22 member 12 (Homo sapiens, UniProt Q96S37); test: Inhibition of human URAT1 stably overexpressing in human HEK293 cells assessed as inhibition of 14C-uric acid uptake preincubated for 30 mins followed by substrate addition and measured after 15 mins using 14C-uric acid as substrate by liquid scintillation counting analysis; format: cell-based
T1 sequence (Q96S37 whole entry): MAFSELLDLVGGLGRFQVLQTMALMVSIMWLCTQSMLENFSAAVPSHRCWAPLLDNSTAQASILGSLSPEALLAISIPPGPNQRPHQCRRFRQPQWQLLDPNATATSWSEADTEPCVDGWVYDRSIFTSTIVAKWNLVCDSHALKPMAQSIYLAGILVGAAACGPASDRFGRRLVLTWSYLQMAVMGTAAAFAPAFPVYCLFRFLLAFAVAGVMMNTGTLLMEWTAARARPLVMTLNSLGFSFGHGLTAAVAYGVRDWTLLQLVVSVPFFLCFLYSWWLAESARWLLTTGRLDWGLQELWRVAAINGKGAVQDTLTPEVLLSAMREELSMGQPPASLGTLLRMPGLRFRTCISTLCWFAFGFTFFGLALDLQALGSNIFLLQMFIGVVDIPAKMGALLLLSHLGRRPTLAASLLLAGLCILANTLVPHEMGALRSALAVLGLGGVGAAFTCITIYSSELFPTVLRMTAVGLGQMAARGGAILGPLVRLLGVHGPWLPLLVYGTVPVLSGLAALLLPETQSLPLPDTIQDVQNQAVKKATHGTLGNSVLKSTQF

Mus musculus = test: Anti-hyperuricemic activity against potassium oxonate induced hyperuricemia in Kunming mouse model assessed as decrease in serum urate level at 2 mg/kg, po and measured after 3 hrs; format: functional, organism-based
[2] = Hepatotoxicity in Kunming mouse assessed as increase in AST level in serum at 50 mg/kg,po for 14 days in presence of BSO; format: toxicity, organism-based; settings: in vivo, 336 h, time 14 day
[3] = Renal toxicity in Kunming mouse assessed as effect on creatinine level at 50 mg/kg,po for 14 days; format: organism-based; settings: in vivo, 336 h, time 14 day
[4] = molecular target: T2, Solute carrier family 2, facilitated glucose transporter member 9 (Mus musculus, UniProt Q3T9X0); test: Inhibition of mouse GLUT9 transfected in human HEK293 cells assessed as inhibition of uric acid induced current by cell patch-clamp assay; format: cell-based
T2 sequence (Q3T9X0 whole entry): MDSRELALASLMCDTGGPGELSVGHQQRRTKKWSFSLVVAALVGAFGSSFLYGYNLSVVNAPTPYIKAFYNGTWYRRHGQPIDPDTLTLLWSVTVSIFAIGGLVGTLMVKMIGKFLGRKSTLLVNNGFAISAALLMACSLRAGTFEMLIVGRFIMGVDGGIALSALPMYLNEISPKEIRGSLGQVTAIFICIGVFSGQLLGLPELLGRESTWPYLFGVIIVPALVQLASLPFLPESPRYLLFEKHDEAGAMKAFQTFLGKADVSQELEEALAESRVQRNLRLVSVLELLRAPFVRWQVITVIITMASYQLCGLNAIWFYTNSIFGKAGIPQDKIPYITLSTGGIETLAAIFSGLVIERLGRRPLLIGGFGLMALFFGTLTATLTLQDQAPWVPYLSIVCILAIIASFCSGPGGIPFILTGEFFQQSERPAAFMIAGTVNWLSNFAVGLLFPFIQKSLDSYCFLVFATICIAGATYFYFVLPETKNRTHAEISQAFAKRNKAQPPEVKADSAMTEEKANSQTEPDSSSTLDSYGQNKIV

[5] = molecular target: T3, Solute carrier family 22 member 6 (Homo sapiens, UniProt Q4U2R8); test: Inhibition of OAT1 (unknown origin) transfected in HEK293 cells assessed as inhibition of 6-CFL uptake preincubated for 30 mins followed by 6-CFL addition and measured for 15 mins by fluorescence based microplate reader analysis; format: cell-based
T3 sequence (Q4U2R8 whole entry): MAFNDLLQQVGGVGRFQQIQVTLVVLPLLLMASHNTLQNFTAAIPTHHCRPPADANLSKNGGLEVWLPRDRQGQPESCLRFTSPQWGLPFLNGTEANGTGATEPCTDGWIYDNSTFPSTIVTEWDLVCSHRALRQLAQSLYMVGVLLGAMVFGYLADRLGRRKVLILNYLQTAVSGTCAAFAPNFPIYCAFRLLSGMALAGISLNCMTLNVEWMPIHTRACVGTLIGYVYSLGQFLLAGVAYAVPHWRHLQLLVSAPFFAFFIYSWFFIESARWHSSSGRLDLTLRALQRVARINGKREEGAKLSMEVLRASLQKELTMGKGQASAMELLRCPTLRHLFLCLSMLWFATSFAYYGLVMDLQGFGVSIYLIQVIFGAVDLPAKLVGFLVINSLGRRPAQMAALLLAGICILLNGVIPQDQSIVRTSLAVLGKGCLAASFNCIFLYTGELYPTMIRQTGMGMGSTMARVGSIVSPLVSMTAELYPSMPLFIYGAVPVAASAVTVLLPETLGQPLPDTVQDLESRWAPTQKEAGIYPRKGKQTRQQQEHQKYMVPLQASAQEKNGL

[6] = Tmax in Sprague-Dawley rat at 5 mg/kg, po and measured upto 24 hrs by LC-MS/MS analysis; format: ADME, organism-based; settings: in vivo
[7] = Tmax in Sprague-Dawley rat at 5 mg/kg, iv and measured upto 24 hrs by LC-MS/MS analysis; format: ADME, organism-based; settings: in vivo
[8] = Cmax in Sprague-Dawley rat at 5 mg/kg, po and measured upto 24 hrs by LC-MS/MS analysis; format: ADME, organism-based; set-up: dose 5 mg/kg, time < 24 hrs, route po; settings: in vivo
[9] = Cmax in Sprague-Dawley rat at 5 mg/kg, iv and measured upto 24 hrs by LC-MS/MS analysis; format: ADME, organism-based; set-up: time < 24 hrs, dose 5 mg/kg, route iv; settings: in vivo
[10] = Half life in Sprague-Dawley rat at 5 mg/kg, po and measured upto 24 hrs by LC-MS/MS analysis; format: ADME, organism-based; settings: in vivo
[11] = Half life in Sprague-Dawley rat at 5 mg/kg, iv and measured upto 24 hrs by LC-MS/MS analysis; format: ADME, organism-based; settings: in vivo
[12] = AUC(0 to infinity) in Sprague-Dawley rat at 5 mg/kg, po and measured upto 24 hrs by LC-MS/MS analysis; format: ADME, organism-based; set-up: time < 24 hrs, dose 5 mg/kg, route po; settings: in vivo
[13] = AUC(0 to infinity) in Sprague-Dawley rat at 5 mg/kg, iv and measured upto 24 hrs by LC-MS/MS analysis; format: ADME, organism-based; set-up: dose 5 mg/kg, time < 24 hrs, route iv; settings: in vivo
[14] = MRT (0 to infinity) in Sprague-Dawley rat at 5 mg/kg, po and measured upto 24 hrs by LC-MS/MS analysis; format: ADME, organism-based; settings: in vivo
[15] = MRT (0 to infinity) in Sprague-Dawley rat at 5 mg/kg, iv and measured upto 24 hrs by LC-MS/MS analysis; format: ADME, organism-based; settings: in vivo
[16] = Oral bioavailability in Sprague-Dawley rat at 5 mg/kg and measured upto 24 hrs by LCMS analysis; format: ADME, organism-based; settings: in vivo
[17] = Subacute toxicity in Kunming mouse assessed as animal death at 50 mg/kg,po for 14 days; format: organism-based; settings: in vivo, 336 h, time 14 day
[18] = Subacute toxicity in Kunming mouse assessed as body weight change at 50 mg/kg,po for 14 days; format: organism-based; settings: in vivo, 336 h, time 14 day
[19] = Subacute toxicity in Kunming mouse assessed as lethargy at 50 mg/kg,po for 14 days; format: organism-based; settings: in vivo, 336 h, time 14 day
[20] = Subacute toxicity in Kunming mouse assessed as clonic convulsion at 50 mg/kg,po for 14 days; format: organism-based; settings: in vivo, 336 h, time 14 day
[21] = Subacute toxicity in Kunming mouse assessed as anorexia at 50 mg/kg,po for 14 days; format: organism-based; settings: in vivo, 336 h, time 14 day
[22] = Subacute toxicity in Kunming mouse assessed as ruffled fur at 50 mg/kg,po for 14 days; format: organism-based; settings: in vivo, 336 h, time 14 day
[23] = Hepatotoxicity in Kunming mouse assessed as increase in ALT level in serum at 50 mg/kg,po for 14 days in presence of BSO; format: toxicity, organism-based; settings: in vivo, 336 h, time 14 day
[24] = Renal toxicity in Kunming mouse assessed as effect on BUN level at 50 mg/kg,po for 14 days; format: organism-based; settings: in vivo, 336 h, time 14 day
[25] = Toxicity in Kunming mouse assessed as cell arrangements in liver at 50 mg/kg, po administered and measured after 14 days by HE staining; format: organism-based; settings: in vivo, 336 h, time 14 day
[26] = Toxicity in Kunming mouse assessed as inflammatory infiltration in liver at 50 mg/kg, po administered and measured after 14 days by HE staining; format: organism-based; settings: in vivo, 336 h, time 14 day
[27] = Toxicity in Kunming mouse assessed as appearance of normal tubular structure in kidney at 50 mg/kg, po administered and measured after 14 days by HE staining; format: organism-based; settings: in vivo, 336 h, time 14 day
[28] = Toxicity in Kunming mouse assessed as appearance of normal glomerulus cells in kidney at 50 mg/kg, po administered and measured after 14 days by HE staining; format: organism-based; settings: in vivo, 336 h, time 14 day
HepG2 = test: Cytotoxicity against human HepG2 cells assessed as reduction in cell viability upto 400 uM incubated for 24 hrs by MTT assay; format: toxicity, cell-based; settings: hepg2, 24 h
[29] = Toxicity in Kunming mouse assessed as inflammatory infiltration in kidney at 50 mg/kg, po administered and measured after 14 days by HE staining; format: organism-based; settings: in vivo, 336 h, time 14 day

SMILES: O=C(c1ccc(O)c(Cl)c1)n1ccc2cccnc21
- IC50 [1]: 1580 nM

SMILES: O=C(c1cc(Cl)c(O)c(Cl)c1)n1cc(Br)c2cccnc21
- IC50 [1]: 1550 nM

SMILES: O=C(c1cc(Cl)c(O)c(Cl)c1)n1ccc2ncccc21
- IC50 [1]: 1560 nM

SMILES: COc1cc(C(=O)n2ccc3cccnc32)ccc1O
- IC50 [1]: 2690 nM

SMILES: O=C(c1ccc(O)c(F)c1)n1ccc2cccnc21
- IC50 [1]: 2080 nM

SMILES: O=C(c1cc(Cl)c(O)c(Cl)c1)n1ccc2cnccc21
- IC50 [1]: 2810 nM

SMILES: O=C(c1cc(Cl)c(O)c(Cl)c1)N1CCc2cc(Br)ccc21
- IC50 [1]: 2360 nM

SMILES: Cc1cc(C(=O)n2ccc3cccnc32)ccc1O
- IC50 [1]: 5830 nM

SMILES: Cc1ccc2c(cnn2C(=O)c2cc(Cl)c(O)c(Cl)c2)c1
- IC50 [1]: 1810 nM

SMILES: O=C(O)CSc1nnc(Br)n1-c1ccc(C2CC2)c2ccccc12
- Activity (Mus musculus): Active

SMILES: O=C(c1cc(Cl)c(O)c(Cl)c1)n1ccc2c(Cl)ncnc21
- IC50 [1]: 1980 nM

SMILES: O=C(c1ccc(O)cc1)n1ccc2cccnc21
- IC50 [1]: 1720 nM

SMILES: O=C(c1cc(Br)c(O)c(Br)c1)n1ccc2cccnc21
- IC50 [1]: 2300 nM

SMILES: O=C(c1cc(Cl)c(O)c(Cl)c1)n1ccc2ccncc21
- IC50 [1]: 3220 nM

SMILES: O=C(c1ccc(O)c(Br)c1)n1ccc2cccnc21
- IC50 [1]: 3800 nM

SMILES: O=C(c1ccc(O)c([N+](=O)[O-])c1)n1ccc2cccnc21
- IC50 [1]: 2950 nM

SMILES: CC(C)(Sc1ccncc1-c1ccc(C#N)c2ccccc12)C(=O)O
- IC50 [1]: 130 nM

SMILES: CC1Cc2ccccc2N1C(=O)c1cc(Cl)c(O)c(Cl)c1 (stereo unspecified)
- IC50 [1]: 1600 nM

SMILES: COc1cc(C(=O)n2ccc3cccnc32)cc(OC)c1O
- IC50 [1]: 4850 nM

SMILES: Cc1cc(C(=O)n2ccc3cccnc32)cc(C)c1O
- IC50 [1]: 2700 nM

SMILES: O=C(c1cc(Cl)c(O)c(Cl)c1)n1ncc2ccccc21
- IC50 [1]: 2260 nM

SMILES: O=C(c1cc(Cl)c(O)c(Cl)c1)n1ccc2cccnc21
- Activity [2]: Non-Toxic
- Activity [3]: Non-Toxic
- IC50 [1]: 800 nM
- IC50 [4]: > 20000 nM
- IC50 [5]: 10200 nM
- Tmax [6]: 0.29 h
- Tmax [7]: 0.52 h
- Cmax [8]: 6830 ng/mL
- Cmax [9]: 18400 ng/mL
- half-life [10]: 4.61 h
- half-life [11]: 6.8 h
- AUC(0-inf) [12]: 35300 ng·h/mL
- AUC(0-inf) [13]: 63800 ng·h/mL
- MRT inf [14]: 7.27 h
- MRT inf [15]: 9.85 h
- bioavailability [16]: 55.3%
- Activity [17]: Non-Toxic
- Activity [18]: Non-Toxic
- Activity [19]: Non-Toxic
- Activity [20]: Non-Toxic
- Activity [21]: Non-Toxic
- Activity [22]: Non-Toxic
- Activity [23]: Non-Toxic
- Activity [24]: Non-Toxic
- Activity [25]: Non-Toxic
- Activity [26]: Non-Toxic
- Activity [27]: Non-Toxic
- Activity [28]: Non-Toxic
- Activity (HepG2): Toxic
- Activity [29]: Non-Toxic
